From patent US20230263822A1, “MODULATION OF FACTOR 11 EXPRESSION” (Ionis Pharmaceuticals, Inc., priority 2008, published 2023)
Strand notation (5' to 3'): a small letter for the sugar, then the base; units joined by * are phosphorothioate-linked, units joined directly phosphodiester-linked; [ ] holds rarer units or linkages, { } end groups; capitals alone tell only the bases. e = 2'-O-(2-methoxyethyl) (MOE); [5mC] = 5-methylcytosine; d = 2'-deoxy (DNA)

What was measured:
Format in all cases: cell-based
[1] = system: human Factor 11 mRNA; assay: Antisense inhibition of human Factor 11 in HepG2 cells, lipofectin, 75 nM (Example 1); details: 75 nM antisense oligonucleotide, ~24 h, relative to untreated control cells, gapmers targeted to SEQ ID NO: 1
Experimental: Antisense oligonucleotides targeted to a Factor 11 nucleic acid were tested for their effects on Factor 11 mRNA in vitro. Cultured HepG2 cells at a density of 10,000 cells per well were transfected using lipofectin reagent with 75 nM antisense oligonucleotide. After a treatment period of approximately 24 hours, RNA was isolated from the cells and Factor 11 mRNA levels were measured by quantitative real time PCR. Factor 11 mRNA levels were adjusted according to total RNA content, as measured by RIBOGREEN. Results are presented as percent inhibition of Factor 11, relative to untreated control cells.
The chimeric antisense oligonucleotides in Tables 1 and 2 were designed as 5-10-5 MOE gapmers. The gapmers are 20 nucleotides in length, wherein the central gap segment is comprised of 10 2′-deoxynucleotides and is flanked on both sides (in the 5′ and 3′ directions) by wings comprising 5 nucleotides each. Each nucleotide in the 5′ wing segment and each nucleotide in the 3′ wing segment has a 2′-MOE modification. The internucleoside linkages throughout each gapmer are phosphorothioate (P=S) linkages. All cytidine residues throughout each gapmer are 5-methylcytidines. “Target start site” indicates the 5′-most nucleotide to which the gapmer is targeted. “Target stop site” indicates the 3′-most nucleotide to which the gapmer is targeted. Each gapmer listed in Table 1 is targeted to SEQ TD NO: 1 (GENBANK Accession No. NM_000128.3) and each gapmer listed in Table 2 is targeted to SEQ TD NO: 2 (GENBANK Accession No. NT_022792.17, truncated from 19598000 to 19624000).

[2] = system: human Factor 11 mRNA; assay: Dose-dependent inhibition of human Factor 11 in HepG2 cells, lipofectin 9.375-75 nM (Example 4); details: for percent inhibition of Factor 11 at 9.375 nM / percent inhibition of Factor 11 at 18.75 nM / percent inhibition of Factor 11 at 37.5 nM / percent inhibition of Factor 11 at 75 nM: relative to untreated control cells
Experimental: (§1) Cells were plated at a density of 10,000 cells per well and transfected using lipofectin reagent with 9.375 nM, 18.75 nM, 37.5 nM and 75 nM concentrations of antisense oligonucleotide, as specified in Table 9. After a treatment period of approximately 16 hours, RNA was isolated from the cells and Factor 11 mRNA levels were measured by quantitative real-time PCR. Human Factor 11 primer probe set RTS 2966 was used to measure mRNA levels. Factor 11 mRNA levels were adjusted according to total RNA content, as measured by RIBOGREEN. Results are presented as percent inhibition of Factor 11, relative to untreated control cells.

[3] = system: human Factor 11 mRNA; assay: Dose-dependent inhibition of human Factor 11 in HepG2 cells, electroporation 0.7-20 uM (Example 4); details: for percent inhibition of Factor 11 at 0.7 μM / percent inhibition of Factor 11 at 2.2 μM / percent inhibition of Factor 11 at 6.7 μM / percent inhibition of Factor 11 at 20 μM: relative to untreated control cells
Experimental: as §1, with “The gapmers were also transfected via electroporation and their dose dependent inhibition of human Factor 11 mRNA was measured. Cells” for “Cells”, “20,000” for “10,000”, “via electroporation” for “using lipofectin reagent”, “0.7 μM, 2.2 μM, 6.7 μM,” for “9.375 nM, 18.75 nM, 37.5 nM”, “20 μM” for “75 nM”, “10.” for “9.”

[4] = system: human Factor 11 mRNA; assay: Antisense inhibition of human Factor 11 in HepG2 cells by microwalk gapmers, lipofectin, 75 nM (Example 3); details: HepG2 cells, lipofectin
In short: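 HepG2 cells (10,000/well) were transfected via lipofectin with 75 nM 20-mer MOE gapmers (phosphorothioate, 5-methyl-C) for about 24 h. Factor 11 mRNA was measured by qRT-PCR, normalized to RIBOGREEN total RNA, and given as percent inhibition versus untreated cells.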

Substance | % inhibition [1] [%] | also measured
412187 (antisense eT*eT*e[5mC]*eA*eA*dA*d[5mC]*dA*dA*dG*dT*dG*dA*d[5mC]*dA*eT*eA*e[5mC]*eA*e[5mC]) [compound 412187] | 21 | 
412188 (antisense eT*eG*eA*eG*eA*dG*dA*dA*dT*dT*dG*d[5mC]*dT*dT*dG*e[5mC]*eT*eT*eT*e[5mC]) [compound 412188] | 21 | 
412189 (antisense eA*eA*eA*eT*eA*dT*dA*d[5mC]*d[5mC]*dT*dT*dG*dA*dG*dA*eG*eA*eA*eT*eT) [compound 412189] | 8 | 
412190 (antisense eA*eG*eT*eA*eT*dG*dT*d[5mC]*dA*dG*dA*dA*dA*dT*dA*eT*eA*e[5mC]*e[5mC]*eT) [compound 412190] | 24 | 
412191 (antisense eT*eT*eA*eA*eA*dA*dT*d[5mC]*dT*dT*dA*dG*dT*dA*dT*eG*eT*e[5mC]*eA*eG) [compound 412191] | 14 | 
412192 (antisense e[5mC]*eA*eG*e[5mC]*eA*dT*dA*dT*dT*dT*dG*dT*dG*dA*dA*eA*eG*eT*e[5mC]*eG) [compound 412192] | 44 | 
412193 (antisense eT*eG*eT*eG*eT*dA*dG*dG*dA*dA*dA*dT*dG*dG*dT*e[5mC]*eA*e[5mC]*eT*eT) [compound 412193] | 38 | 
412194 (antisense eT*eG*e[5mC]*eA*eA*dT*dT*d[5mC]*dT*dT*dA*dA*dT*dA*dA*eG*eG*eG*eT*eG) [compound 412194] | 80 | 
412195 (antisense eA*eA*eA*eT*e[5mC]*dA*dT*d[5mC]*d[5mC]*dT*dG*dA*dA*dA*dA*eG*eA*e[5mC]*e[5mC]*eT) [compound 412195] | 22 | 
412196 (antisense eT*eG*eA*eT*eA*dT*dA*dA*dG*dA*dA*dA*dA*dT*d[5mC]*eA*eT*e[5mC]*e[5mC]*eT) [compound 412196] | 25 | 
412197 (antisense eA*e[5mC]*eA*e[5mC]*eA*dT*dT*d[5mC]*dA*d[5mC]*d[5mC]*dA*dG*dA*dA*eA*e[5mC]*eT*eG*eA) [compound 412197] | 45 | 
412198 (antisense eT*eT*e[5mC]*eA*eG*dG*dA*d[5mC]*dA*d[5mC]*dA*dA*dG*dT*dA*eA*eA*e[5mC]*e[5mC]*eA) [compound 412198] | 21 | 
412199 (antisense eT*eT*e[5mC]*eA*e[5mC]*dT*d[5mC]*dT*dT*dG*dG*d[5mC]*dA*dG*dT*eG*eT*eT*eT*e[5mC]) [compound 412199] | 66 | 
412200 (antisense eA*eA*eG*eA*eA*dT*dA*d[5mC]*d[5mC]*d[5mC]*dA*dG*dA*dA*dA*eT*e[5mC]*eG*e[5mC]*eT) [compound 412200] | 59 | 
412201 (antisense e[5mC]*eA*eT*eT*eG*d[5mC]*dT*dT*dG*dA*dA*dA*dG*dA*dA*eT*eA*e[5mC]*e[5mC]*e[5mC]) [compound 412201] | 66 | 
412202 (antisense eT*eT*eG*eG*eT*dG*dT*dG*dA*dG*d[5mC]*dA*dT*dT*dG*e[5mC]*eT*eT*eG*eA) [compound 412202] | 65 | 
412205 (antisense eG*eT*eT*eT*eA*dT*dG*d[5mC]*d[5mC]*d[5mC]*dT*dT*d[5mC]*dA*dT*eG*eT*e[5mC]*eT*eA) [compound 412205] | 69 | 

Substance | % inhibition [1] [%] | also measured
412207 (antisense e[5mC]*eG*eT*eG*eA*dA*dA*dA*dA*dG*dT*dG*dG*d[5mC]*dA*eG*eT*eG*eG*eA) [compound 412207] | 64 | 
412208 (antisense eA*eG*eA*e[5mC]*eA*dA*dA*dT*dG*dT*dT*dA*d[5mC]*dG*dA*eT*eG*e[5mC]*eT*e[5mC]) [compound 412208] | 73 | 
412209 (antisense eG*eT*eG*e[5mC]*eT*dT*d[5mC]*dA*dG*dT*dA*dG*dA*d[5mC]*dA*eA*eA*eT*eG*eT) [compound 412209] | 91 | 
412210 (antisense eT*eG*e[5mC]*eA*e[5mC]*dA*dG*dG*dA*dT*dT*dT*d[5mC]*dA*dG*eT*eG*eA*eA*eA) [compound 412210] | 73 | 
412211 (antisense eG*eA*eT*eT*eA*dG*dA*dA*dA*dG*dT*dG*d[5mC]*dA*d[5mC]*eA*eG*eG*eA*eT) [compound 412211] | 64 | 
412214 (antisense eT*e[5mC]*e[5mC]*eT*eG*dG*dG*dA*dA*dA*dA*dG*dA*dA*dG*eG*eT*eA*eA*eA) [compound 412214] | 58 | 
412216 (antisense eA*eA*eA*eG*eA*dT*dT*dT*d[5mC]*dT*dT*dT*dG*dA*dG*eA*eT*eT*e[5mC]*eT) [compound 412216] | 43 | 
412217 (antisense eA*eA*eT*e[5mC]*e[5mC]*dA*d[5mC]*dT*d[5mC]*dT*d[5mC]*dA*dG*dA*dT*eG*eT*eT*eT*eT) [compound 412217] | 47 | 
412218 (antisense eA*eA*e[5mC]*e[5mC]*eA*dG*dA*dA*dA*dG*dA*dG*d[5mC]*dT*dT*eT*eG*e[5mC]*eT*e[5mC]) [compound 412218] | 27 | 
412219 (antisense eG*eG*e[5mC]*eA*eG*dA*dA*d[5mC]*dA*d[5mC]*dT*dG*dG*dG*dA*eT*eG*e[5mC]*eT*eG) [compound 412219] | 56 | 
412220 (antisense eT*eG*eG*eT*eA*dA*dA*dA*dT*dG*dA*dA*dG*dA*dA*eT*eG*eG*e[5mC]*eA) [compound 412220] | 58 | 
412221 (antisense eA*eT*e[5mC]*eA*eG*dT*dG*dT*d[5mC]*dA*dT*dG*dG*dT*dA*eA*eA*eA*eT*eG) [compound 412221] | 48 | 
412222 (antisense eA*eA*e[5mC]*eA*eA*dT*dA*dT*d[5mC]*d[5mC]*dA*dG*dT*dT*d[5mC]*eT*eT*e[5mC]*eT*e[5mC]) [compound 412222] | 5 | 
412226 (antisense eT*eT*eG*eA*eA*dG*dA*dA*dA*dG*d[5mC]*dT*dT*dT*dA*eA*eG*eT*eA*eA) [compound 412226] | 17 | 
412227 (antisense eA*eG*eT*eA*eT*dT*dT*dT*dA*dG*dT*dT*dG*dG*dA*eG*eA*eT*e[5mC]*e[5mC]) [compound 412227] | 75 | 
416993 (antisense e[5mC]*eT*dT*dT*dG*dA*dG*dA*dT*dT*d[5mC]*dT*dT*dT*dG*eG*eG*e[5mC]*e[5mC]*eA) [compound 416993] |  | IC50 [2]: 36 nM; percent inhibition of Factor 11 at 9.375 nM [2]: 15%; percent inhibition of Factor 11 at 18.75 nM [2]: 37%; percent inhibition of Factor 11 at 37.5 nM [2]: 50%; percent inhibition of Factor 11 at 75 nM [2]: 68%; IC50 [3]: 2200 nM; percent inhibition of Factor 11 at 0.7 μM [3]: 22%; percent inhibition of Factor 11 at 2.2 μM [3]: 48%; percent inhibition of Factor 11 at 6.7 μM [3]: 87%; percent inhibition of Factor 11 at 20 μM [3]: 92%; % inhibition ([4]; gapmers targeted to nucleobases 1062 to 1091 of SEQ ID NO: 1): 91%
417000 (antisense eT*eG*d[5mC]*dA*d[5mC]*dA*dG*dT*dT*dT*d[5mC]*dT*dG*dG*d[5mC]*eA*eG*eG*e[5mC]*e[5mC]) [compound 417000] |  | IC50 [2]: 23 nM; percent inhibition of Factor 11 at 9.375 nM [2]: 35%; percent inhibition of Factor 11 at 18.75 nM [2]: 47%; percent inhibition of Factor 11 at 37.5 nM [2]: 58%; percent inhibition of Factor 11 at 75 nM [2]: 70%; IC50 [3]: 600 nM; percent inhibition of Factor 11 at 0.7 μM [3]: 46%; percent inhibition of Factor 11 at 2.2 μM [3]: 73%; percent inhibition of Factor 11 at 6.7 μM [3]: 76%; percent inhibition of Factor 11 at 20 μM [3]: 89%; % inhibition ([4]; gapmers targeted to nucleobases 1275 to 1318 of SEQ ID NO: 1): 89%
